# Experimental data from patent US20170333591A9, “ABSORBENT ARTICLE COMPRISING MALODOR REDUCTION COMPOSITIONS” (The Procter & Gamble Company, priority 2014, published 2017).
# Assay: Log of liquid dish neat product liquid-air partition coefficient
# Format: physicochemical
# Details: not given
row,Compound,Comment Code: Log of liquid dish neat product liquid-air partition coefficient
1,CC(C)C(=O)OCc1ccccc1 [Material 647],K (Log of liquid dish neat product liquid-air partition coefficient greater than or equal to 7)
2,C=C(OC(C)=O)c1ccccc1 [Material 931],K (Log of liquid dish neat product liquid-air partition coefficient greater than or equal to 7)
3,C[C@H]1[C@@H]2C[C@H](C[C@@]13C=CC(=O)CC3)C2(C)C [Material 1143],K (Log of liquid dish neat product liquid-air partition coefficient greater than or equal to 7)
4,CC(C)c1ccc(CC=O)cc1 [Material 977],K (Log of liquid dish neat product liquid-air partition coefficient greater than or equal to 7)
5,c1ccc(COCc2ccccc2)cc1 [Material 454],K (Log of liquid dish neat product liquid-air partition coefficient greater than or equal to 7)
6,CC(O)C(C)/C=C1\C[C@H]2C[C@@H]1[C@@H]1C=CC[C@H]21 (stereo partly shown) [Material 359],K (Log of liquid dish neat product liquid-air partition coefficient greater than or equal to 7)
7,C=C[C@@](C)(O)CCC=C(C)C [Material 1017],K (Log of liquid dish neat product liquid-air partition coefficient greater than or equal to 7)
8,CC1(C)C2CCC3(C2)C1C1(CCC3(C)C)OCCO1 (stereo not shown) [Material 1144],K (Log of liquid dish neat product liquid-air partition coefficient greater than or equal to 7)
9,CC1CCC2C(C)(C)C3CC12CCC3(C)OC=O (stereo not shown) [Material 566],K (Log of liquid dish neat product liquid-air partition coefficient greater than or equal to 7)
10,CC1C(C)(C)C2CCC3CC(C)(C)OC3C2C1(C)C (stereo not shown) [Material 680],K (Log of liquid dish neat product liquid-air partition coefficient greater than or equal to 7)
11,CC1CC2CCC3C(C2O1)C(C)(C)C(C)C3(C)C (stereo not shown) [Material 1097],K (Log of liquid dish neat product liquid-air partition coefficient greater than or equal to 7)
12,CC1CCC2(O)C(C)(C)C3CCC2(C)C1C3 (stereo not shown) [Material 933],K (Log of liquid dish neat product liquid-air partition coefficient greater than or equal to 7)

# Same assay, conditions: Comment Code letters K and/or L
row,Compound,Log of liquid dish neat product liquid-air partition coefficient (Comment Code K/L)
1,C[C@H]1[C@@H]2C[C@H](C[C@@]13C=CC(=O)CC3)C2(C)C [Material 1143],K (Log of liquid dish neat product liquid-air partition coefficient greater than or equal to 7)
2,CC1(C)C2CCC3(C2)C1C1(CCC3(C)C)OCCO1 (stereo not shown) [Material 1144],K (Log of liquid dish neat product liquid-air partition coefficient greater than or equal to 7)

# Same assay, conditions: code letter within the Comment Code cell
row,Compound,Log of liquid dish neat product liquid-air partition coefficient (Comment Code K/L)
1,CCCCCCCCCCCC=O [Material 178],K (Log of liquid dish neat product liquid-air partition coefficient greater than or equal to 7)
2,CC1=CCC(C=CC(C)C(C)O)C1(C)C (stereo not shown) [Material 416],K (Log of liquid dish neat product liquid-air partition coefficient greater than or equal to 7)
3,CCCCCCCCOC(=O)c1ccco1 [Material 28],K (Log of liquid dish neat product liquid-air partition coefficient greater than or equal to 7)
4,OCCCc1ccccc1 [Material 254],K (Log of liquid dish neat product liquid-air partition coefficient greater than or equal to 7)
5,CCCCCCCCCCCCCC=O [Material 36],K (Log of liquid dish neat product liquid-air partition coefficient greater than or equal to 7)
6,C=C1CCCC(C)(C)C1C=CC(C)=O (stereo not shown) [Material 324],K (Log of liquid dish neat product liquid-air partition coefficient greater than or equal to 7)
7,CC1CCC(C(C)(C)O)CC2=C1CCC2C (stereo not shown) [Material 292],K (Log of liquid dish neat product liquid-air partition coefficient greater than or equal to 7)
8,CC1(O)CCOC2(CCCCC2)C1 (stereo not shown) [Material 16],K (Log of liquid dish neat product liquid-air partition coefficient greater than or equal to 7)
9,C=C(C)C1CC=C(C)C(O)C1 (stereo not shown) [Material 531],K (Log of liquid dish neat product liquid-air partition coefficient greater than or equal to 7)
10,C=CCc1cc(OC)c2c(c1)OCO2 [Material 37],K (Log of liquid dish neat product liquid-air partition coefficient greater than or equal to 7)
11,CCC1=CCCC(C)(C)C12C=CC(C)O2 (stereo not shown) [Material 413],K (Log of liquid dish neat product liquid-air partition coefficient greater than or equal to 7)
12,CC(O)C(C)/C=C1\C[C@H]2C[C@@H]1[C@@H]1C=CC[C@H]21 (stereo partly shown) [Material 359],K (Log of liquid dish neat product liquid-air partition coefficient greater than or equal to 7)
13,CC(C)=CCC/C(C)=C\CO [Material 64],K (Log of liquid dish neat product liquid-air partition coefficient greater than or equal to 7)
14,C=CC1(C)CCC(C(C)C)=CC1C(=C)C (stereo not shown) [Material 461],K (Log of liquid dish neat product liquid-air partition coefficient greater than or equal to 7)
15,CCCCCCCCCCCCCC(=O)OC(C)C [Material 196],K (Log of liquid dish neat product liquid-air partition coefficient greater than or equal to 7)
16,CCOC(C)OCCc1ccccc1 (stereo not shown) [Material 415],K (Log of liquid dish neat product liquid-air partition coefficient greater than or equal to 7)
17,CC1(C)CCCC2=C1CC(C=O)CC2 (stereo not shown) [Material 486],K (Log of liquid dish neat product liquid-air partition coefficient greater than or equal to 7)
18,CCCCCCCCCC(C)C(OC)OC (stereo not shown) [Material 101],K (Log of liquid dish neat product liquid-air partition coefficient greater than or equal to 7)
19,CC(C=O)Cc1ccc(C(C)C)cc1 (stereo not shown) [Material 478],K (Log of liquid dish neat product liquid-air partition coefficient greater than or equal to 7)
20,CCCCCCC#CC(OC)OC [Material 3],K (Log of liquid dish neat product liquid-air partition coefficient greater than or equal to 7)

# Same assay, conditions: code letters K/L of the Comment Code
row,Compound,Log of liquid dish neat product liquid-air partition coefficient (Comment Code)
1,CC1(O)CCC2=C(CCCC2(C)C)C1 (stereo not shown) [Material 676],K (Log of liquid dish neat product liquid-air partition coefficient greater than or equal to 7)
2,CC/C=C\C/C=C/CCO [Material 1072],K (Log of liquid dish neat product liquid-air partition coefficient greater than or equal to 7)
3,CC1C(C)(C)C2=C(C(=O)CCC2)C1(C)C (stereo not shown) [Material 572],K (Log of liquid dish neat product liquid-air partition coefficient greater than or equal to 7)
4,C=CC(C)(CCC=C(C)C)OC(C)OCC (stereo not shown) [Material 916],K (Log of liquid dish neat product liquid-air partition coefficient greater than or equal to 7)
5,CC1CCC2C(C2(C)C)C12COC(C)(C)OC2 (stereo not shown) [Material 1036],K (Log of liquid dish neat product liquid-air partition coefficient greater than or equal to 7)
6,CC1=CCC(CCC(C)C(C)O)C1(C)C (stereo not shown) [Material 1023],K (Log of liquid dish neat product liquid-air partition coefficient greater than or equal to 7)
7,C=C(C)C1CC=C(COC(C)=O)CC1 (stereo not shown) [Material 947],K (Log of liquid dish neat product liquid-air partition coefficient greater than or equal to 7)
8,CC(CC=O)CCc1ccccc1 (stereo not shown) [Material 807],K (Log of liquid dish neat product liquid-air partition coefficient greater than or equal to 7)
9,CC1=CCC(CCC(C)CO)C1(C)C (stereo not shown) [Material 600],K (Log of liquid dish neat product liquid-air partition coefficient greater than or equal to 7)
10,C=CCOC(=O)COCCC(C)C [Material 748],K (Log of liquid dish neat product liquid-air partition coefficient greater than or equal to 7)
11,CC(C)Cc1ccc(CC(C)C=O)cc1 (stereo not shown) [Material 1033],K (Log of liquid dish neat product liquid-air partition coefficient greater than or equal to 7)
12,CCC=CCCC=CCO [Material 865],K (Log of liquid dish neat product liquid-air partition coefficient greater than or equal to 7)
13,CC1=CC2CC(C3OCCO3)C1CC2C(C)C (stereo not shown) [Material 912],K (Log of liquid dish neat product liquid-air partition coefficient greater than or equal to 7)
14,CCCCCCCCC=CC#N [Material 827],K (Log of liquid dish neat product liquid-air partition coefficient greater than or equal to 7)
15,CC(C)(O)CCc1ccccc1 [Material 639],K (Log of liquid dish neat product liquid-air partition coefficient greater than or equal to 7)
16,CC1CCC2C(C)(C)C3CC12CCC3(C)OC=O (stereo not shown) [Material 566],K (Log of liquid dish neat product liquid-air partition coefficient greater than or equal to 7)
17,CC1C(C)(C)C2CCC3CC(C)(C)OC3C2C1(C)C (stereo not shown) [Material 680],K (Log of liquid dish neat product liquid-air partition coefficient greater than or equal to 7)
18,CC1CC2CCC3C(C2O1)C(C)(C)C(C)C3(C)C (stereo not shown) [Material 1097],K (Log of liquid dish neat product liquid-air partition coefficient greater than or equal to 7)
19,CC1CCC2(O)C(C)(C)C3CCC2(C)C1C3 (stereo not shown) [Material 933],K (Log of liquid dish neat product liquid-air partition coefficient greater than or equal to 7)
20,C=CC(C)=CCC=C(C)CCC=C(C)C [Material 710],K (Log of liquid dish neat product liquid-air partition coefficient greater than or equal to 7)
21,C=C(C)[C@@H]1CCC2=CCC[C@@H](C)[C@]2(C)C1 [Material 1105],K (Log of liquid dish neat product liquid-air partition coefficient greater than or equal to 7)
